In ChEMBL document CHEMBL1133921, “Absolute stereostructures of novel norcadinane- and trinoreudesmane-type sesquiterpenes with nitric oxide production inhibitory activity from Alpinia oxyphylla” (Bioorg Med Chem Lett, 2001):

Legend:
Format in all cases: functional
[1] = organism: Mus musculus; assay: Inhibitory concentration on nitric oxide production in lipopolysaccharide-activated mouse peritoneal macrophages
[2] = organism: Mus musculus; assay: Inhibitory effect on nitric oxide production in lipopolysaccharide activated mouse peritoneal macrophages at 3 uM
[3] = organism: Mus musculus; assay: Inhibitory effect on nitric oxide production in lipopolysaccharide activated mouse peritoneal macrophages at 10 uM

SMILES | IC50 [1] | inhibition at 3 µM [2] | inhibition at 10 µM [3]
CC(C)[C@@H]1CCC(=O)C2=C1[C@H](O)[C@](C)(O)CC2 [OXYPHYLLENODIOL A] | 28 µM | 11.8% | –
CC(C)[C@H]1CCC(=O)C2=C1[C@H](O)[C@](C)(O)CC2 [OXYPHYLLENODIOL B] | > 100 µM | -4.2% | -0.4%
C[C@@]12CCC(=O)C=C1[C@@](C)(O)[C@H](O)CC2 [OXYPHYLLENONE A] | 35 µM | 1.6% | -2.9%
C[C@@]12CCC(=O)C=C1[C@](C)(O)[C@H](O)CC2 [OXYPHYLLENONE B] | > 100 µM | -8.1% | 0.4%
CNC(=N)NCCC[C@H](N)C(=O)O [TILARGININE] | – | 2% | –
